# According to patent US20100311726A1, “REDUCTION OF BETA-AMYLOID LEVELS BY TREATMENT WITH THE SMALL MOLECULE DIFFERENTIATION-INDUCING FACTOR” (priority 2007, published 2010):
# Experiments:
# APP = APP processing (mature APP, αCTF, βCTF) by western blot; format: cell-based, human; conditions: CHO-CAB
# Aβ40 = experiment: Secreted Aβ40 sandwich ELISA of conditioned media; format: cell-based, human
# Method: The levels of secreted Aβ from CHO-7W cells stably overexpressing APP^751 and CHO-CAB cells that overexpress APP^751 and human BACE1 was quantified by ELISA and viewed by western blot using the monoclonal anti-APP antibody (6E10) that recognizes residues 1-17 of Aβ. Cells (5×10^5) were deposited into 6-well tissue culture dishes in triplicate and allowed to settle and grow for 24 hours. At this time, the media was aspirated and the cells were washed 2× in warm PBS. Fresh media (2 mL) and media supplemented with vehicle or DIF-1 was added to each well. […] Since DIF-1 exerts a cytostatic effect, the cell number was counted for all treatments upon removal of the conditioned media and used to normalize the levels of Aβ. […] The concentration of Aβ40 and Aβ42 was subsequently detected in triplicate using the β-Amyloid 1-40 or 1-42 Colorimetric ELISA kit (Biosource International, Inc.) according to the manufacturer's instructions.
# We then looked at what effect this had on the levels of secreted soluble APP and Aβ production. […] The conditioned media was analyzed using anti-APP antibody 6E10 in order to detect total βP levels and sαAPP levels since it recognizes the amino acids 1-17 of Aβ and thus cannot detect sβAPP. […] The blots were analyzed using a phosphorimager. […]
# human APLP1 = experiment: APLP1 metabolism by western blot in CHO-A1 cells; format: cell-based; conditions: 30 μM DIF-1 or 250 nM DAPT, ~20 hours
# Method: CHO cells that stably express human APLP1, which is a closely related family member of the APPs and known γ-secretase substrate (Eggert et al., 2004), were treated with 30 μM DIF-1, DAPT or DIF-1 plus DAPT (FIG. 7). Equal numbers of CHO-A1 cells stably expressing human APLP1 cells were plated in 6-well dishes and allowed to grow overnight. The next day, the media was removed and replaced with control media (2 ml) or media containing DAPT, DIF-1 or DAPT and DIF-1. […] After washing, blots were probed with HRP-conjugated secondary antibodies (1:5000) for 1 hour at room temperature.
structure (smiles),measurement,setting,value
"CCCCCC(=O)c1c(O)c(Cl)c(OC)c(Cl)c1O [DIF-1, 1-[3,5-dichloro-2,6-dihydroxy-4-methoxyphenyl]-1-hexanone]",effect on lactacystin-induced CTF accumulation,APP; 30 μM DIF-1 with 10 μM lactacystin,greatly reduced the effect of lactacystin
same,effect on ALLN-induced CTF accumulation,APP; DIF-1 with 10 μM ALLN,reduced the effect of ALLN on APP processing
same,reduction of secreted Aβ40,"Aβ40; CHO-7W, 30 μM overnight",about 48.5±0.91%
same,reduction of secreted levels of Aβ40,Aβ40; conditioned media from either CHO-7W or CHO-CAB cells,44.2±3.4%
same,"APLP1 maturation, protein levels, CTF levels",human APLP1,"no effect on APLP1 maturation, protein levels or CTF production"
